Patent US20240300882A1, “CRYSTALLINE FORMS OF A DIFFUSION ENHANCING COMPOUND” (DIFFUSION PHARMACEUTICALS LLC, priority 2021, published 2024)

Tests used:
Format in all cases: physicochemical
[1] = Heating to 100° C. in a TG furnace, then XRPD; conditions: Heat to 100° C., hold 1 minute
Procedure: Crystalline Forms A and B are heated to 100° C. in a TG furnace, held at that temperature for 1 minute, and immediately analyzed by XRPD.

[2] = Competitive slurry experiments, wet solid analysed by XRPD
Procedure: Sample preparation is carried out in a nitrogen glove box. Saturated solutions of TSC from Example 2 are prepared at a given temperature. The volume of each solution is about 1.5 mL and it is deemed saturated if excess solid remains after stirring for 2 hours. The sample is then centrifuged and the mother liquor is transferred to a vial containing equal amounts of each polymorph, about 10 mg each. The vials are capped and sealed with parafilm, and the slurries are then stirred magnetically at a given temperature for 5 days. Each sample is then centrifuged, the mother liquor decanted, and the wet solid immediately analyzed by XRPD.
Competitive slurry experiments involving Crystalline Forms A through E are carried out at three different temperatures using three different solvent systems (Table 2). […] At 50° C., the slurries in 1:1 acetone:water and 1:1 acetonitrile:water produce a mixture of Crystalline Forms A and B and Crystalline Form A, respectively. Although both solvent systems contain significant amounts of water, the slurries are carried out at a temperature at which Crystalline Form B is known to lose volatiles. […] That is probably the reason that Crystalline Form A results from the higher-temperature slurries in water-containing solvents.
Additional competitive slurry experiments are carried out between Crystalline Forms A, B, and F (Table 3). The data are consistent with the results in Example 10. […] The elevated temperature aqueous slurry data is also consistent with Example 10. Crystalline Form A is observed in aqueous media at 50° C. In the case of the 1:1 ethanol:water slurry, the XRPD pattern of the resulting material matches that of Crystalline Form A but contains several unidentified peaks.

[3] = Dynamic vapor sorption (DVS) analysis; conditions: for Form by XRPD after DVS analysis: exposed up to 95% RH and down to 5% RH
Procedure: DVS analysis is carried out using a TA Instruments Q5000 Dynamic Vapor Sorption analyzer. The instrument is calibrated with standard weights and a sodium bromide standard for humidity. Approximately 10-25 mg (e.g., 20 mg) or 5-15 mg of sample is loaded into a metal-coated quartz pan for analysis. The sample is analyzed at 25° C. with a maximum equilibration time of one hour in 10% relative humidity (RH) steps from 5 to 95% RH (adsorption cycle) and from 95 to 5% RH (desorption cycle). The movement from one step to the next occurred either after satisfying the equilibrium criterion of 0.01% weight change or, if the equilibrium criterion is not met, after one hour. The percent weight change values are calculated using Microsoft Excel®. The temperature for the DVS analysis may impact the outcome of the results.

[4] = XRPD under a nitrogen stream of variable relative humidity
Procedure: Form H from Example 25 is measured under different relative humidities. The humidity measurements are made on a powder diffractometer X'Pert, PANalytical (G.16.SYS.S006) using CuKα radiation. Measuring conditions: tube power 40 kV/40 mA, scan range 1°-50° (2θ), step size 0.02°, time per step 2.4 seconds. The sample is measured in a 0.4 mm deep sample holder in a closed chamber under a stream of nitrogen of variable relative humidity (RH). The humidity of the nitrogen stream is controlled by varying the relative amount of humid and dry nitrogen gas. The sample is first conditioned one hour with a dry nitrogen stream and then a first XPRD is taken. The humidity of the gas stream is then changed to 50% RH and the sample is conditioned three hours to the new RH prior to a second XRPD measurement. After 10 more hours with 50% RH, a third XRPD is taken.

[5] = Solid-state stability in relative humidity jars, analysed by XRPD; conditions: up to 4 weeks at 25° C./60% RH and 40° C./75% RH
Procedure: The solid-state stability of TSC Crystalline Forms A and F are evaluated at 25° C./60% relative humidity (RH) and 40° C./75% RH.
To a 1-dram glass vial is added approximately 20 mg of TSC Crystalline Form A or F. The open vials are placed in relative humidity (RH) jars. The RH in each jar is controlled by a saturated salt solution (sodium bromide for 60% RH and sodium chloride for 75% RH). The RH jars are purged with nitrogen and sealed. The sealed RH jars are placed in ovens set at the appropriate temperatures. The materials are analyzed at given time points by XRPD.

[6] = Equilibrium solubility shake-flask method, 24-hour slurry, XRPD result; conditions: water and ethanol
Procedure: Solubility is evaluated using shake-flask method at room temperature. Individual samples are prepared as follows: Approximately 20 mg of TSC Forms A, F, and J are placed in a 1-dram glass vial. To each vial is added 1.5 mL of media. The vials are then placed in an incubation chamber at room temperature with shaking at 150 rpm. After 24 hours the vials are removed and each slurry is vacuum filtered. The mother liquor is diluted 1:10 with the respective media for that sample and analyzed by HPLC. Water used is HPLC grade. Ethanol used in absolute, HPLC grade.

[7] = Physical stability of Crystalline Form F under slurry conditions, XRPD; conditions: anhydrous ethanol and ethanol with 1 and 5% water, ambient temperature, up to 4 days
Procedure: The physical stability of Crystalline Form F is evaluated when it is slurried in three solvent systems (anhydrous ethanol and ethanol containing both 1 and 5% water by volume) at ambient temperature.
To a 1-dram glass vial is added approximately 20 mg of TSC Crystalline Form F and 1 mL of a given solvent. The slurry is stirred at room temperature for a given amount of time. The vial is then centrifuged, the mother liquor decanted, and the wet solid is analyzed by XRPD.

For `CC(/C=C/C=C(\C)C(=O)[O-])=C\C=C\C=C(C)\C=C\C=C(/C)C(=O)[O-].[Na+].[Na+]` [Crystalline Form B, trans sodium crocetinate], the “XRPD pattern after heating” value [1] was “converts to Crystalline Form F”, the “Relative stability of the forms” value ([2]; aqueous conditions) was “most stable form” and the “Relative stability of the forms” value ([2]; between 2 and 55° C. in 1:1 ethanol:water (v/v)) was “more stable than Forms A, C, D, E, and F”.

For `CC(/C=C/C=C(\C)C(=O)[O-])=C\C=C\C=C(C)\C=C\C=C(/C)C(=O)[O-].[Na+].[Na+]` [Example 20, trans sodium crocetinate], the “Form by XRPD after DVS analysis” value [3] was “remains unchanged”.

For `CC(/C=C/C=C(\C)C(=O)[O-])=C\C=C\C=C(C)\C=C\C=C(/C)C(=O)[O-].[Na+].[Na+]` [Form H, trans sodium crocetinate], the “Form on exposure to different relative humidities” value [4] was “changes form”, the “Form by XRPD after humidity exposure” value ([4]; 0% RH, dry nitrogen stream, one hour) was “Form G” and the “Form by XRPD after humidity exposure” value ([4]; 50% RH, 10 more hours (third XRPD)) was “no difference between the second and third XRPDs”. The “Form by XRPD after humidity exposure” value ([4]; 50% RH, three hours) was “Form E”.

With “trans sodium crocetinate [Crystalline Form A]” the “Solid-state stability of the form” value [5] was “remain unchanged”, the “XRPD pattern after heating” value [1] was “remains unchanged” and the “Relative stability of the forms” value ([2]; between 2 and 50° C. in methanol) was “more stable than Forms B through E”. For the same compound, the “Relative stability of the forms” value ([2]; between 2 and 55° C. in absolute ethanol and absolute ethanol containing either 10% methanol or toluene) was “more stable than Forms B through F”, the “Relative stability of the forms” value ([2]; non-aqueous conditions) was “most stable form” and the “Form after 24-hour slurry experiments” value [6] was “remain unchanged”. For the same compound, the maximum water absorption ([3]; DVS, 25° C., 5 to 95% RH) was “about 2.5%” and the “Form by XRPD after DVS analysis” value [3] was “remains unchanged”.

With “trans sodium crocetinate [Crystalline Form F]” the “Solid-state stability of the form” value [5] was “remain unchanged”, the “Physical stability of the form when slurried” value [7] was “remains unchanged” and the “Form after 24-hour slurry experiments” value [6] was “remain unchanged”. The “Form by XRPD after DVS analysis” value [3] was “remains unchanged”.

For “trans sodium crocetinate [Crystalline Form J]”, the “Form after 24-hour slurry experiments” value [6] was “exhibits form conversion”.
